Several values for one entry are separate records, joined by “and”; a condition that tells them apart may be missing. Equal entries are not always repeated. Bridge positions count the residues as written; N and C are the ends. Square brackets hold non-standard residues; d marks the D form. Peptide text beside a SMILES is read from it. * marks the point of attachment. X1 = C=CCN1CC[C@]23c4c5ccc(O)c4O[C@H]2[C@H](N*)CC[C@@]3(O)[C@H]1C5
What was measured:
mouse KOR [1] = target: T1, mouse KOR (Mus musculus, UniProt P33534); assay: biochemical; type: binding; design: expressed in transfected cells; details: for specific [3H]DPN binding, normalized to 100%: replicates; for Ki: [3H]DPN 1 nM, read-out: Ki
mouse KOR [2] = target: T1, mouse KOR; assay: cell-based; design: expressed in transfected cells; details: for Emax: HEK-293T, read-out: Emax cAMP assay; for EC50: read-out: EC50 cAMP assay

T1 sequence (P33534 whole entry): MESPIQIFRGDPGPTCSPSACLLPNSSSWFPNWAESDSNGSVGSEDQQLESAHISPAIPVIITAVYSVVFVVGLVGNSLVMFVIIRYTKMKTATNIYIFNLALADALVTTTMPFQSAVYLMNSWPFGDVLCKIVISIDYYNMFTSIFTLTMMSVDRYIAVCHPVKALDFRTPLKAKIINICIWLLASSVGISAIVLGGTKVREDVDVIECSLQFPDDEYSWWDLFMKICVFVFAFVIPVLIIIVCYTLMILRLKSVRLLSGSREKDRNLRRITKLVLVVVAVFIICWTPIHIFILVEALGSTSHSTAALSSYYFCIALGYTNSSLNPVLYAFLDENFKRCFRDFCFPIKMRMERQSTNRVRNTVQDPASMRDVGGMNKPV

Compound	specific [3H]DPN binding, normalized to 100% (mouse KOR [1]; Log [ligand] (M) -5)	specific [3H]DPN binding, normalized to 100% (mouse KOR [1]; Log [ligand] (M) -5.5)	specific [3H]DPN binding, normalized to 100% (mouse KOR [1]; Log [ligand] (M) -6)	specific [3H]DPN binding, normalized to 100% (mouse KOR [1]; Log [ligand] (M) -6.5)	specific [3H]DPN binding, normalized to 100% (mouse KOR [1]; Log [ligand] (M) -7)	specific [3H]DPN binding, normalized to 100% (mouse KOR [1]; Log [ligand] (M) -7.5)	specific [3H]DPN binding, normalized to 100% (mouse KOR [1]; Log [ligand] (M) -8)	specific [3H]DPN binding, normalized to 100% (mouse KOR [1]; Log [ligand] (M) -8.5)	specific [3H]DPN binding, normalized to 100% (mouse KOR [1]; Log [ligand] (M) -9)	specific [3H]DPN binding, normalized to 100% (mouse KOR [1]; Log [ligand] (M) -9.5)	Ki (mouse KOR [1]) [µM]	Emax (mouse KOR [2]) [%]	EC50 (mouse KOR [2]) [µM]
C=CCN1CC[C@]23c4c5ccc(O)c4O[C@H]2[C@H](NC(=O)[C@@H](Cc2ccccc2)NC(=O)[C@H](CO)NC(=O)[C@@H]2CSCC(=O)N[C@H]([C@H](C)O)C(=O)N[C@@H](CC(N)=O)C(=O)N[C@H](CCC(=O)O)C(=O)N[C@H](CO)C(=O)N[C@H](CC(C)C)C(=O)N2)CC[C@@]3(O)[C@H]1C5 [DNCP-β-NalA(2)] ({CH2CO}-[dT]N[dE][dS][dL]CS[dF]-X1; thioether N-6)	0.2531 and 1.3817 and 8.417	5.254 and 5.706 and 15.2738	8.812 and 8.467 and 22.3516	20.0364 and 16.1798 and 28.5928	30.6965 and 29.2448 and 46.3656	73.9679 and 58.4159 and 82.1752	84.0925 and 77.2121 and 90.6295	94.004 and 85.6847 and 98.8664	85.0018 and 88.1692 and 96.9444	100	0.031	89 ± 2	0.0075
C=CCN1CC[C@]23c4c5ccc(O)c4O[C@H]2[C@H](NC(=O)[C@@H](Cc2ccccc2)NC(=O)[C@@H](NC(=O)[C@@H]2CSCC(=O)N[C@@H](CC(=O)O)C(=O)N[C@@H](C)C(=O)N[C@H](Cc4ccc(O)cc4)C(=O)N[C@H](C)C(=O)N[C@@H](C(C)C)C(=O)N2)[C@@H](C)O)CC[C@@]3(O)[C@H]1C5 [DNCP-β-NalA(3)] ({CH2CO}-DA[dY][dA]VCT[dF]-X1; thioether N-6)	4.711 and 4.268 and 3.134	9.049 and 8.477 and 7.931	13.9379 and 12.8705 and 12.6183	21.3908 and 20.9203 and 21.0807	41.59 and 36.2221 and 28.4597	75.8729 and 62.6776 and 54.9604	98.7879 and 86.9193 and 89.7517	102.113 and 95.9134 and 97.9933	101.53 and 101.749 and 103.107	100	0.024	99 ± 1	0.014
C=CCN1CC[C@]23c4c5ccc(O)c4O[C@H]2[C@H](NC(=O)[C@@H](Cc2ccccc2)NC(=O)[C@H](CO)NC(=O)[C@@H]2CSCC(=O)N[C@H](CO)C(=O)N[C@H](CC(=O)O)C(=O)N[C@H](Cc4c[nH]cn4)C(=O)N[C@@H](C)C(=O)N[C@@H](C)C(=O)N2)CC[C@@]3(O)[C@H]1C5 [DNCP-β-NalA(4)]	7 and 5.59 and 5.4127	12.4013 and 7.976 and 9.019	12.817 and 12.3329 and 11.7119	19.572 and 16.0481 and 16.106	34.7156 and 27.5243 and 29.2083	62.865 and 48.8054 and 54.3277	85.7392 and 63.6235 and 68.5184	110.569 and 79.1117 and 88.8606	116.546 and 94.2824 and 100.104	100	–	101 ± 2	0.001

Source: PMC10698194 (Nature Communications, 2023)
